Reference: patent publication US5856510A, “5-alkenyl and 5-alkynyl indole compounds” (Allelix Biopharmaceuticals Inc., priority 1996, dated 1999)
Where two headings read alike, the source gives them in different places.

Molecular target: T1, 5-HT1D-like receptor (rabbit isolated saphenous vein) (Oryctolagus cuniculus, UniProt P49144)
T1 construct: contracting the rabbit saphenous vein; from tissue; host or cells: rabbit saphenous vein rings, endothelium removed
Assay: Agonist Assay: contraction of the rabbit isolated saphenous vein (5-HT1D-like receptor agonist activity)
Assay type: cell-based, rabbit (male New Zealand White)

T1 sequence (P49144 whole entry): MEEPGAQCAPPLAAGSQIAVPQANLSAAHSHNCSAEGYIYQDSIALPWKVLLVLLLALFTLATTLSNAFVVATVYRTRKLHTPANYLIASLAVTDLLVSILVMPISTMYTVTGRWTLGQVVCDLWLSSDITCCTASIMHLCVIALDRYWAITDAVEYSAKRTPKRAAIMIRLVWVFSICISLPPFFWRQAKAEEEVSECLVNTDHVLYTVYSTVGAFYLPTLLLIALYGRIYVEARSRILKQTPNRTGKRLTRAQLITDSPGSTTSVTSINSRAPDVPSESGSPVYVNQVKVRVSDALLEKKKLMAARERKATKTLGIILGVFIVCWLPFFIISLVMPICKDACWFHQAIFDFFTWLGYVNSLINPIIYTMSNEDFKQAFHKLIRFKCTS

| SMILES | EC50 | EC50 (contraction of rabbit isolated saphenous vein, concentration causing 50% of the maximum contraction effected by the compound, prazosin, idazoxan and indomethacin 1 μM each, 37° C., pH 7.4, read-out: EC50) |
| --- | --- | --- |
| C=Cc1ccc2[nH]cc(CCN(C)C)c2c1 [Example 7a, 3-[2-(N,N-Dimethylamino)ethyl]-5-vinyl-1H-indole] | 130 nM | – |
| C=Cc1ccc2[nH]cc(CCN3CCCC3)c2c1 [Example 7b, 3-[2-(N-Pyrrolidinyl)ethyl]-5-vinyl-1H-indole] | 5800 nM | – |
| C=Cc1ccc2[nH]cc(C[C@H]3CCCN3C)c2c1 [Example 7c, (R)-3-[(N-Methylpyrrolidin-2-yl)methyl]-5-vinyl-1H-indole] | 80 nM | – |
| C=Cc1ccc2[nH]cc(C3CCN(C)C3)c2c1 (stereo not shown) [Example 7d, 3-(N-Methylpyrrolidin-3-yl)-5-vinyl-1H-indole] | – | 180 nM |
